Measured values: PMC11488110 (Theranostics, 2024)
“Also recorded” adds a separate entry of the source.

How the values were obtained:
[1] = molecular target: T1, hPPARδ (Homo sapiens, UniProt Q03181); experiment: In vitro co-transfection (PPRE-luciferase) assay in CV-1 cells, hPPARδ; type: cell-based
T1 construct: expressed in transfected cells; host or cells: CV-1 monkey kidney cells
T1 sequence (Q03181 1-441): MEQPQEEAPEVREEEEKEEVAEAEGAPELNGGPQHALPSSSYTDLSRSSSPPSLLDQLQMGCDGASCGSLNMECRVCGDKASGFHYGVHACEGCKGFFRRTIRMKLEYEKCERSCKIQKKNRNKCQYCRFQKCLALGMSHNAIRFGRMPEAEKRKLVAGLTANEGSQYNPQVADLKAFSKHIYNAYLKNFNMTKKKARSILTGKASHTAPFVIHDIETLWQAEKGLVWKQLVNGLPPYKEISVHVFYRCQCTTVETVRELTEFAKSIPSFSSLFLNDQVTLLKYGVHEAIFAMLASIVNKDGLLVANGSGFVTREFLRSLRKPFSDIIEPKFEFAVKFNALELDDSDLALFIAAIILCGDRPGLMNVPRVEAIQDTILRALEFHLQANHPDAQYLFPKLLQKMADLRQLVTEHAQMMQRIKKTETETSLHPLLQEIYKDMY

[2] = Metabolic stability assay in liver microsomes; type: in vitro ADME, rat; conditions: 1 μM, 30 min
Protocol: The metabolic stability assay was performed by incubation of human and selected animal liver microsomes (dog, rat, and mouse) with the test compound at a final concentration of 1 μM, in the presence of 0.5 mg/ml microsomal protein and NADPH-regeneration system, in a total volume of 100 μL phosphate buffer 100 mM (pH 7.4) at 37 °C. The incubation was started by introducing the NADPH-regeneration system and terminated by adding 40 μL of ice-cold acetonitrile at 0- and 30 min. Precipitated proteins were removed by centrifugation at 10,000 g and 4 °C for 5 min. Aliquots of the supernatant were injected onto an LC-MS/MS system. Incubations terminated prior to addition of the NADPH-regeneration system (time point, 0 min) were used as standards, defined as 100%. Percent of the parent compound remaining was calculated by comparing peak areas.
Ta b l e S2 . CYP inhibition, microsomal stability, and hERG in hibition of 5a .
CYP inhibitiona Microsomal stabilityb
( % of c ont rol ac ti vit y) (% of remaining compound) hERG inhibitionc (IC50, μ M) […]
aCytochrome P450 (CYP450) enzyme activity was measured by incubating CYP450 enzyme isotype-specific substrates and liver microsomes in the presence of the test compound (10 μM) for 15 min. […]

[3] = tested on: Salmonella typhimurium TA100; experiment: Ames MPF mutagenicity assay, TA100; type: cell-based
Protocol: An Ames microplate format (MPF) 98/100 mutagenesis assay kit (Xenometrix) was used to test mutagenic activity. The TA98 / TA100 Salmonella strain was inoculated into the bacterial culture medium and cultured overnight. The Salmonella test strain was then exposed to six concentrations of the test compound (plus positive and negative controls). Samples were prepared in 96-well plates in sterile DMSO. The cultured bacteria, test compound, and S9 mixture were incubated for 90 min at 37 °C in a shaking incubator. The mixture was then treated with an indicator medium and dispensed into 384-well plates. The plates were incubated at 37 °C for 48 h. The number of wells containing revertant colonies was counted for each dose.
Ta b l e S4 . Tw o -strain Ames mutagenic assess ment of 5a.
Straina Activity in the absence (-) of S9b Activity in the presence (+) of S9b TA 9 8 Negative (-) Negative (-)
TA 1 0 0 Negative (-) Negative (-) aSalmonella typhimurium strains TA98 (hi s D3052 mutation) and TA100 (hisG46 mutation) were used to detect frameshift mutations and base- pair substitution mutations, respectively. bAroclor 1254- induced rat liver S9 fraction for exogenous metabolic activation.

[4] = tested on: primary mouse astrocytes; experiment: Cytotoxicity assay (EZ-Cytox) in primary mouse astrocytes; type: cell-based; conditions: up to 30 μM, 24 h
[5] = tested on: PPARδ target genes (Pdk4, Angptl4, Cd36); experiment: qRT-PCR of PPARδ target genes in BV-2 microglia and mouse cortex; type: cell-based; conditions: in vitro (BV-2, 24 h) and in vivo (cortex)
Protocol: Total RNA was isolated using TRIzol® (Invitrogen). Genomic DNA was removed and complementary DNA was synthesized from 500 ng total RNA using the iScript™ gDNA Clear cDNA Synthesis Kit (Bio-Rad). Real-time PCR was performed using the CFX Connect™ Real-Time PCR Detection System (Bio-Rad) using iQ™ SYBR® Green Supermix (Bio-Rad). The hypoxanthine phosphoribosyltransferase (Hprt) was used to normalize mRNA expression levels. Primer sequences used are described in Table S6.
Figure S8. 5a induces transcriptional activation of PPAR δ targ et genes in vitro an d in vivo.
(A-B) qRT-PCR anal ysi s of relative mRNA expression of Ppard and its downstream t arget genes, including Pdk4 , Angptl4, and Cd36. (A) BV-2 microglia were treated with 5a or […]
treated control (one -wa y ANOVA with Dunnett’s test). (B) Cortical homogenates from 10 - month- old WT and APP/PS1 mice treated with vehicle or 5a (30 m g/kg/day for 10 da ys, p.o ) were used for anal ysis (n = 3–4 mice per group). *P < 0.05 and ****P < 0.0001; n.s., not significant (one-wa y ANOVA with Tukey’s test). Hprt mRNA levels were used to normalize the expression of each gene.Data are p resented as mean ± SEM. GW: GW501516.
(1 picture or pasted object on this page, not shown here)

[6] = tested on: C57BL/6N mice with scopolamine-induced cognitive impairment; experiment: Scopolamine-induced memory impairment mouse model; type: in vivo
[7] = Pharmacokinetics in Sprague-Dawley rats; conditions: rat, plasma
[8] = 30 mg/kg/day p.o. 5 days before scopolamine 1 mg/kg i.p.

Compound: Cc1cc(SCc2[se]c(-c3ccc(C(F)(F)F)cc3)nc2C)ccc1OCC(=O)O [Compound 5a, {2-Methyl-4-[4-methyl-2-(4-trifluoromethyl-phenyl)-selenazol-5-yl-methylsulfanyl]-phenoxy}-acetic acid]
- EC50 ([1]; co-transfection assay, CV-1 cells, 24 h, read-out: Potency (EC50) hPPARδ): 0.7 nM
- Selectivity index hPPARα/hPPARδ ([1]; ratio EC50(hPPARα)/EC50(hPPARδ)): >14000
- Selectivity index hPPARγ/hPPARδ ([1]; ratio EC50(hPPARγ)/EC50(hPPARδ)): >14000
- Microsomal stability, Rat (% of remaining compound) [2]: 73.3 % of remaining compound
- Ames mutagenic activity in the presence (+) of S9 ([3]; TA100, with rat liver S9): Negative (-); also recorded: lacks mutagenicity
- Ames mutagenic activity in the absence (-) of S9 ([3]; TA100, without S9): Negative (-); also recorded: lacks mutagenicity
- Cytotoxicity in primary astrocytes [4]: no cytotoxicity
- Transcription of PPARδ target genes Pdk4, Angptl4, Cd36 [5]: induced transcriptional activation
- Y-maze spontaneous alternation [6, 8]: prevented the decrease in alternation percentage
- Y-maze total number of arm entries [6, 8]: without inducing any changes
- Passive avoidance step-through latency ([6]; 30 mg/kg/day p.o., scopolamine 1 mg/kg i.p.): mitigated this effect
- Memory in Y-maze, passive avoidance and Morris water maze ([6]; post-administration, 10 mg/kg p.o.): significantly restored the memory impairment
- Memory in Y-maze, passive avoidance and Morris water maze ([6]; post-administration, 30 mg/kg p.o.): maximum efficacy
- Cognitive improvement compared with GW501516 ([6]; post-administration, same dose 30 mg/kg): superior in vivo efficacy
- AUC ([7]; iv, 5 mg/kg): 7350 ng·h/mL
- Vd ([7]; iv, 5 mg/kg): 2.3 ± 0.1 L/kg
- clearance ([7]; iv, 5 mg/kg): 10.2 mL/min/kg
- half-life ([7]; iv, 5 mg/kg): 2.3 ± 0.6 h
- bioavailability ([7]; oral, 10 mg/kg): 90.7%
- AUC ([7]; po, 10 mg/kg): 13300 ng·h/mL
- Cmax ([7]; po, 10 mg/kg): 2740 ng/mL
